As a reminder, the melting point is the temperature, or range, at which the solid turns liquid. `COc1nc(OC)c(C(C)C)c(C(=O)c2cc(C)cc(C=CC#N)c2)n1` returned a melting point of 144 to 145 °C. Next, `CCOP(=O)(OCC)c1ccc(/C=C(\C)c2ccc3c(c2)C(C)(C)CCC3(C)C)cc1`: 72.5 to 73.5 °C; `CC1(C)CCC(C)(C)c2cc(-c3cc(-c4ccc(C(=O)O)cc4)ccc3-c3ccccc3)c(O)cc21`: 145 °C. The compound `COC(=O)C1=C(C)NC(C)=C(C(=O)OCCN2CC=C(c3ccccc3)CC2)C1c1cccc([N+](=O)[O-])c1` (configuration not stated) showed a melting point of 115 to 116 °C. Take `CC(Cn1ncnn1)n1nnc2cc3c(=O)n(CC(C)(C)O)nnc3cc2c1=O` (configuration not stated): the melting point is 128 to 130 °C.

In turn, `O=C(N[C@H]1CN(C(=O)NS(=O)(=O)N2CCN(NC(=O)OCc3ccccc3)C2=O)C1=O)OCc1ccccc1` had a melting point of 75.7 to 116 °C. `Cc1c2c(c(Oc3ccc(C(C)C)cc3)c(C)c1NC(=O)CC(C)(C)C)OC(C)(C)C2`: the melting point fell in the range of 148 to 149 °C. Next, `O=C(Nc1ccc2nc(CN3CCCCC3)ccc2c1)c1ccc(-c2ccc(F)cc2)cc1`: 202 to 204 °C. In turn, `Cc1ccc2c(c1)cc(C(=O)OCc1ccccc1)n2CC(=O)OC(C)(C)C` had a melting point of 80 to 82 °C. The compound `CNC(=O)[C@@H](NC(=O)[C@H](CC(=O)NOCc1ccccc1)CC(C)C)C(C)(C)C` gave a melting point of 128 to 129 °C. With `Cc1ccc(N2C(=O)C3=C(CCCC3)C2=O)c2c1OC(C)C2` (configuration not stated), the melting point was 158 to 160 °C.

Compound `O=C(O)c1ccc(OC(F)F)c2oc3ccc([N+](=O)[O-])cc3c12` yielded a melting point of over 270 °C. In the case of `O=C(Nc1ccc(C(F)(F)F)cc1)O[C@H]1COC(c2ccccc2)=N[C@@H]1c1ccccc1` (racemic) it was 140 °C; in that of `Cn1ccnc1-c1ccccc1Nc1nc(Nc2ccc3c(c2)CCC(=O)CC3)ncc1Cl`, 149 °C; in that of `CSC1C(=O)Nc2c(Nc3ccccc3)cccc21` (configuration not stated), 174 to 176 °C. Take `CC(C)(C(=O)O)c1cccc(OCc2ccccc2)c1`: the melting point was 114 to 116 °C. The compound `O=C(O)CCC(=O)c1ccc(N2CCCCC2)cc1` gave a melting point of 150 to 151 °C. `O=[N+]([O-])c1ccc(C=Cc2ccc(N3CCC(O)CC3)cc2)cc1` yielded a melting point of 248 to 250 °C. In the case of `CC(=O)OCc1cc(C(C)=O)ccc1OC(C)=O` it was 47 to 48 °C; in that of `CCOC(=O)c1oc2ccc(Cl)cc2c1C`, 80 to 82 °C; in that of `Cc1cc(C)c2nc(NCCC(N)=O)n(Cc3nc(C)ccc3O)c2c1`, 229 °C. Turning to `COc1ccc2nc(C(=O)Nc3nnn(Cc4ccc(Cl)c(Cl)c4)c3C)sc2c1`, the melting point is 176 °C. In the case of `CC(C)(C)c1nc2cc(N3CCCC3)c(NC(N)=S)cc2s1`, the melting point was found to be 221 °C.

The compound `COCOc1cc(OC)ccc1C(=O)c1ccc(OCc2nc(-c3ccccc3)oc2C)cc1C` registered a melting point of 107 to 108 °C.

`CCOC(=O)c1ccc(CCN2CCN(CCCS(=O)(=O)O)CC2)cc1` yielded a melting point of 235 to 236 °C. With `COC(=O)C1=Cc2cc(-c3ccc(Cl)cc3)ccc2S(=O)(=O)CC1`, the melting point is 168 to 170 °C. In the case of `O=C1C[C@@H]2[C@@H](CC[C@@H](O)COc3cccc(Cl)c3)[C@H](O)C[C@@H]2O1`, the melting point lay in the range of 102 to 104 °C. `O=C(O)Cc1ccc2noc(-c3ccccc3)c2c1`: the melting point lay in the range of 173 to 174 °C. In the case of `COC(=O)C1=C(C(=O)OC)C2OC1c1cc3c(cc12)OCO3`, the melting point was 117 to 119 °C. Compound `CC(C)(C)COc1nc(N2CCNCC2)nc(N2CCS(=O)CC2)c1[N+](=O)[O-]` returned a melting point of 156 to 158 °C. Next, `O=C1c2c(Cl)cccc2-n2cnc(-c3nc(CN4CCCC4)cs3)c2[C@@H]2CCCN12`: 213 to 214 °C. For `CON=C(C)c1ccc2c(c1)ncn2-c1cccc(-c2nccs2)c1`, the melting point lay within 157 to 159 °C. As for `CC(C)c1cccc(C(C)C)c1NC(=O)Nc1nnn(Cc2ccccc2)n1`, the melting point lay within 180 to 181 °C. `CCCCCSc1cc(C(C)(C)C)c(O)c(C(C)(C)C)c1` yielded a melting point of 54 to 55 °C. `Cn1ncc(C(=O)N2CC(F)C2)c1C(=O)Nc1ccc2nc(-c3ccccc3)nn2c1` displayed a melting point of 243 °C. For the compound `CC1(C)C=C(c2ccccn2)c2cc(Cl)c(Cl)cc2OC1`, the melting point is 98 °C.

The compound `CCOc1cc(Oc2ccc(S(C)(=O)=O)nc2)cc2cc(C3=NCC(CC(=O)O)S3)[nH]c12` (configuration not stated) registered a melting point of 208 to 210 °C. `C(=Cc1ccc(-c2ccc(OCCCN3CCCCC3)cc2)cc1)CN1CCCCC1`: the melting point was 100 to 105 °C. In turn, `C=C(COc1ccc(C(=O)CCC(=O)O)cc1)COc1ccc(C(C)=O)c(O)c1CCC` came in with a melting point of 136 to 137 °C. `N#Cc1nn(-c2c(Cl)cc(C(F)(F)F)cc2Cl)c(Cl)c1SC(F)(F)F` gave a melting point of 131 to 132 °C. Take `CCCCCCCCCCCC(CC(=O)NC(CCCNC(=O)OCc1ccccc1)COC1CCCCO1)OCc1ccccc1` (configuration not stated): the melting point fell in the range of 84 to 86 °C. Regarding `CCCc1cc2c(c3ccc(OC)cc13)OCc1cc(OC)ccc1-2`, the melting point fell in the range of 88 to 90 °C. Next, `CS(=O)(=O)c1ccc(C2=C(c3ccc(F)cc3)C(=O)OC2)c(F)c1`: 160 to 162 °C; `CCn1nc(-c2ccccc2)c(C(C)=O)c(Nc2cccc3cn[nH]c23)c1=O`: 263 to 264 °C. Consider `COc1ccc(-c2cncc(C#N)c2N(C)c2ccc3[nH]ccc3c2)cc1OC`, for which the melting point is 224 to 226 °C. `N#Cc1ccc(C2C(=O)N(Cc3ccc(F)cc3)Cc3cncn32)cc1` (configuration not stated): the melting point was 132 to 135 °C. The compound `CCCCON=C(C(=O)OCC)c1csc(N)n1` registered a melting point of 126 to 128 °C. Compound `COc1ccccc1-n1c(=O)[nH]c2c(C(N)=O)nc(C3CCCC3)nc21` showed a melting point of 244 to 246 °C. As for `CN1CCNC(=O)c2cccc(N)c21`, the melting point was 130 to 133 °C. With `O=C(NC(=O)C(c1ccccc1)c1ccccc1)C1CC1`, the melting point amounted to 178 °C. The compound `CCc1nn(-c2ccccn2)c2nc3cc(F)c(F)cc3c(Cl)c12` yielded a melting point of 160 to 161 °C.

`FC(F)(F)c1cccc(-c2nnc(Cl)cc2Cl)c1`: the melting point lay in the range of 80 to 81.5 °C. Turning to `c1ccc(-n2cc3c(n2)-n2cccc2C3(Cc2ccncc2)Cc2ccncc2)cc1`, the melting point is 169 to 170 °C. In the case of `FC(F)(F)c1cc(CO[C@H]2CCCN(Cc3ccccc3)[C@H]2c2ccccc2)cc(C(F)(F)F)c1` it was 89 to 93 °C; in that of `CCCCCCCCCCOc1ccc(NC(=O)c2ccc(O)cc2)cc1OCCCCCCCCCC`, 137 °C; in that of `CC1(C)CC(=O)c2c(O)cc(O)cc2C1`, 115 to 116 °C. In turn, `Cc1oc(-c2ccccc2)nc1COc1ccc(N)cn1` showed a melting point of 106 to 107 °C. The compound `CCCOC(C)c1ccc(OCc2ccccc2)cc1` (single isomer, unassigned; (+)) registered a melting point of 51 to 53 °C. As to `CCOC(=O)c1cn2c3c(c(Cl)ccc3c1=O)N(C)CC2C` (configuration not stated), the melting point was in the range of 259 to 261 °C. `CCCc1nc(NC)sc1-c1ccncc1` displayed a melting point of 150 to 151 °C.

`CN1C2CCC1CC(O)(c1ccc(F)cc1)C2` (configuration not stated) yielded a melting point of 169 °C.

With `COc1ccc(OC)c(Cc2ccc3nc(N)nc(N)c3c2)c1`, the melting point lay within 190 to 192 °C. In turn, `CCOC(=O)CNc1ncccc1[N+](=O)[O-]` showed a melting point of 38 to 39 °C. On to `CCCn1c(C)nn(-c2ccc(N)cc2)c1=O`, for which the melting point amounted to 139 °C. Take `Cn1nc(C(F)(F)F)cc1Oc1cc(C#N)cc(Oc2cc(C(F)(F)F)nn2C)c1`: the melting point was 139 °C. `COc1cc2sc(C(=O)O)cc2c(Cl)c1OC` had a melting point of 267 to 270 °C. In the case of `OCC1(Oc2ccc3c(c2)c(-c2cc4cccnc4[nH]2)cn3C2(CO)CCC2)CCC1` it was 165 to 166 °C.

In the case of `CCCCCCC(C)N(Cc1ccc(CC(C)(C)C)cc1)C(Nc1cc(C(C)(C)C)c(O)c(C(C)(C)C)c1)=C1C(=O)COC1=O` (configuration not stated), the melting point fell in the range of 158 to 160 °C. The compound `N#Cc1ccc(-c2ccc(OCCCC(=O)NO)cc2)cc1` displayed a melting point of 170 to 172 °C. Regarding `N=C(N)NCc1cc(CCC(=O)O)no1`, the melting point is over 297 °C. `CCc1c(C)n(C)c2ccc(NC(=O)Nc3ccccn3)cc12`: the melting point lay within 120 to 123 °C. In turn, `COc1ccc(CCN(C)C)c2[nH]c(=S)[nH]c12` gave a melting point of 213 to 216 °C. As to `CCCC=CCC(CC(=O)Nc1cc(Cc2n[nH]c(=O)c3ccccc23)ccc1F)C(=O)O` (configuration not stated), the melting point lay within 179 to 181 °C. In the case of `COc1cc(C(=O)N2CCN(C(=O)C3=Cc4cc(OCc5ccccc5)c(OCc5ccccc5)cc4CCC3)CC2)cc(OC)c1OC`, the melting point lay in the range of 130 to 132 °C. Compound `CCOC(=O)CCC(CC(=O)c1ccc(NCc2ccc3ccc4nc(C)[nH]c(=O)c4c3c2)cc1)C(=O)OCC` (racemic) came in with a melting point of 189 to 190 °C. In the case of `CCc1c(C(=O)c2cc(C)cc(C)c2)n(C/C=C/CO)c(=O)[nH]c1=O`, the melting point was 172 to 173 °C. `CC1CCC2(CC1S(=O)(=O)c1ccccc1)OCCO2` (configuration not stated) displayed a melting point of 105 to 106 °C. In the case of `CC1(C)[C@@H](C(=O)O)[C@@H]1C(=O)O` (relative stereo) it was 217 °C; in that of `CCS(=O)c1nc(-c2ccc(OC)cc2)c(-c2ccc(OC)cc2)[nH]1` (configuration not stated), 161 to 162 °C; in that of `NC(=O)c1c(Cl)c(-c2ccccc2)n2c1CN(S(=O)(=O)c1cccc(C(F)(F)F)c1)CC2`, 158 to 159 °C. In the case of `CCOC(=O)c1sc2ccc(Cl)cc2c1CBr`, the melting point was 148 to 150 °C. For `C#CC(=O)NCCCCC`, the melting point was 59 to 60.2 °C. The compound `Cc1cn(-c2ccc(Br)cc2C#N)cn1` came in with a melting point of 166 °C. Next, `CC(=O)Nc1ccc2nc(NC3=NCCN3)[nH]c2c1`: 294 °C. `COC(=O)c1cc(C(O)CN(C)C)ccc1OCc1ccccc1` (configuration not stated) returned a melting point of 79 to 81 °C. In turn, `CCCCCCCC(O)C(C)(C)C(=O)O` (configuration not stated) showed a melting point of 39 to 41 °C. In the case of `CCCn1nc2c(N)nc3ccccc3c2c1CCCCC(=N)NO`, the melting point is 222 to 224 °C.

These data come from a melting point compilation (Tetko et al.; mined from patent text by program, amines drawn as free bases though some values may be those of a salt).
